From patent US20090023666A1, “Modulators of Hypoxia Inducible Factor-1 and Related Uses” (priority 2006, published 2009)
“Also recorded” adds a separate entry of the source. Like-named read-outs stand apart in the source and are kept apart here.

Experiments:
tumor cell lines = assay: Anti-proliferative activity in tumor cell lines (panel); type: cell-based, human; conditions: for IC50: Homo sapiens, read-out: IC50 range over the tumor cell lines
Description: (§1) FIG. 8 is a graph depicting the mRNA levels of α-1 and α-3 isoforms quantitated by real time RT-PCR (TaqMan) using fluorescent labeled TaqMan probes. Anti-proliferation (IC50 values) activity of BNC4 on indicated cell lines was determined by MTS assay. Total alpha levels (al+a3) were plotted against (1/IC50) X100 values.

MCF-7 = assay: Anti-proliferative activity, MCF-7; type: cell-based; conditions: Homo sapiens
Description: as §1

LnCaP = assay: Anti-proliferative activity, LnCaP; type: cell-based; conditions: Homo sapiens, read-out: Anti-Proliferative activity IC50
Description: as §1

PC3 = assay: Anti-proliferative activity, PC3; type: cell-based; conditions: Homo sapiens
Description: as §1

MES-SA = assay: Anti-proliferative activity, MES-SA; type: cell-based; conditions: Homo sapiens, read-out: Anti-Proliferative activity IC50
Description: as §1

MES-SA-DX5 = assay: Anti-proliferative activity, MES-SA-DX5; type: cell-based; conditions: Homo sapiens
Description: as §1

HCT116 = assay: Anti-proliferative activity, HCT116; type: cell-based; conditions: Homo sapiens
Description: as §1

A549 = assay: cells; type: cell-based; conditions: Homo sapiens
Description: as §1

Caki-1 (CAKI) = assay: cells; type: cell-based; conditions: Homo sapiens
Description: as §1

IGR-OV1 = assay: Anti-proliferative activity, IGR-OV1; type: cell-based; conditions: Homo sapiens
Description: as §1

RPMI-8226 = assay: Anti-proliferative activity, RPMI-8226; type: cell-based; conditions: Homo sapiens
Description: as §1

CCRF-CEM = assay: Anti-proliferative activity, CCRF-CEM; type: cell-based; conditions: Homo sapiens, read-out: Anti-Proliferative activity IC50
Description: as §1

SNB-75 = assay: Anti-proliferative activity, SNB-75; type: cell-based; conditions: Homo sapiens
Description: as §1

SNB-78 = assay: Anti-proliferative activity, SNB-78; type: cell-based; conditions: Homo sapiens
Description: as §1

C33A = assay: Anti-proliferative activity, C33A; type: cell-based; conditions: Homo sapiens, C-33-A, read-out: Anti-Proliferative activity IC50
Description: as §1

HIF-1α and HIF-2α = assay: Induction of HIF-1α and HIF-2α during hypoxia (Western blotting); type: cell-based; conditions: for HIF-1α and HIF-2α protein expression: Caki-1, A549, Panc-1, Hep3B cells, hypoxia (1% O2) 4 hours, BNC4 0.1 μM, BP228 and BP244 0.1 and 1.0 μM; for protein expression of HIF-1β, NIK, Hsp90, DR4, Bcl-2 and β-actin: same cells and treatment, specificity
Description: Caki-1 (renal cancer), A549 (lung cancer), Panc-1 (pancreatic cancer) and Hep3B (liver cancer) cells were treated with BNC4, BP228 and BP244 under hypoxic conditions. The cells were treated with indicated each compound for 4 hours under normoxic (N, 20% O2) or hypoxic (H, 1% O2) conditions. Expression of HIF-1α, HIF-1β and β-actin and other proteins was analyzed by Western blotting. The HIF-1α and HIF-2α protein levels increased in cells cultured under these conditions for 4 hours without any treatment. […] The inhibition was specific as levels of constitutively expressed HIF-1β were not affected by any of the drugs.

VEGF = assay: Hypoxia induced VEGF secretion (ELISA); type: cell-based; conditions: hypoxic conditions, Hep3B, Caki-1 16 hours (FIG. 6)
Description: FIG. 6 is two graphs depicting the effect of BP228 and BP244 on secretion of VEGF. Caki-1 cells were treated with indicated compound and cultured under hypoxia for 16 hours. VEGF levels in conditioned medium were measured using an ELISA kit.
The decrease in HIF-1 correlated closely with declining levels of VEGF secretion. […] Caki-1 cells were treated with indicated compound and cultured under hypoxia for 16 hours. VEGF levels in conditioned medium were measured using an ELISA kit.

A549 sentinel line = assay: Hypoxic stress response induced by cytotoxic agents in A549 sentinel line; type: cell-based; conditions: in the presence of Gemcitabine
Source text: FIGS. 7A-7E are graphs depicting the stress response of A549 Sentinel Line induced by treatment with Gemcitabine (FIG. 7A) or Gemcitabine in the presence of indicated compound (FIG. 7B-7D). Untreated (control) sample is shown in shadow. […] Similar results can be achieved for other chemotherapeutic agents which induce hypoxic stress, such as paclitaxel, carboplatin, and mitoxantrone.
Similar results were obtained with carboplatin (not shown).

Panc-1 tumors = assay: In vivo activity against Panc-1 human pancreatic xenograft; parameters: species or system nude mice; conditions: SC, CI
Description: Panc-1 tumors were injected subcutaneously (sc) into the flanks of male nude mice. After the tumors reached 60 mg in size, osmotic pumps (model 2002, Alzet Inc., flow rate 0.5 μl/hr) containing 15 mg/ml of BP244 were implanted sc on the opposite sides of the mice. The control animals received pumps containing vehicle (10% captisol, Cyclex Inc.). The mice treated with standard chemotherapy agent received intra-peritoneal injections of Gemcitabine at 40 mg/kg every 3 days for 4 treatments (q3d×4). The experiment was terminated when the control group tumor size reached an average of about 1 gram. Upon termination, the mice were weighed, sacrificed and their tumors excised. The tumors were weighed and the mean tumor weight per group was calculated.
A titration experiment was first performed on BP244 to determine its minimum effective dose against Panc-1 human pancreatic xenograft in nude mice. BP244 (sc, osmotic pumps) was first tested at 15, 10 and 5 mg/ml using Alzet pumps as in previous experiments. Gemcitabine (40 mg/kg; q3d×4, i.p.) was also included in the experiment as a comparison. […]

[1] = MCF7, read-out: Anti-Proliferative activity IC50
[2] = PC-3, read-out: Anti-Proliferative activity IC50
[3] = MES-SA/Dx5, read-out: Anti-Proliferative activity IC50
[4] = HCT-116, read-out: Anti-Proliferative activity IC50
[5] = A549, read-out: Anti-Proliferative activity IC50
[6] = CAKI-1, read-out: Anti-Proliferative activity IC50
[7] = IGROV-1, read-out: Anti-Proliferative activity IC50
[8] = RPMI-8226, read-out: Anti-Proliferative activity IC50
[9] = SNB-75, read-out: Anti-Proliferative activity IC50
[10] = SNB-78, read-out: Anti-Proliferative activity IC50

SMILES	HIF-1α and HIF-2α protein expression (HIF-1α and HIF-2α)	protein expression of HIF-1β, NIK, Hsp90, DR4, Bcl-2 and β-actin (HIF-1α and HIF-2α)	VEGF secretion (VEGF)	stress response in A549 sentinel line induced by Gemcitabine (A549 sentinel line)	% TGI (d24) (Panc-1 tumors; 15 mg/ml) [%]	% Wt Change (d24) (Panc-1 tumors; 15 mg/ml) [%]	Av. Tumor Weight (Panc-1 tumors; 15 mg/ml) [mg]	IC50 (tumor cell lines) [µM]	IC50 (MCF-7; [1]) [µM]	IC50 (LnCaP; LNCaP) [µM]	IC50 (PC3; [2]) [µM]	IC50 (MES-SA) [µM]	IC50 (MES-SA-DX5; [3]) [µM]	IC50 (HCT116; [4]) [µM]	IC50 (A549; [5]) [µM]	IC50 (Caki-1 (CAKI); [6]) [µM]	IC50 (IGR-OV1; [7]) [µM]	IC50 (RPMI-8226; [8]) [µM]	IC50 (CCRF-CEM) [µM]	IC50 (SNB-75; [9]) [µM]	further results
C[C@@H]1O[C@@H](O[C@@H]2C=C3CC[C@@H]4[C@H](CC[C@]5(C)[C@@H](c6ccc(=O)oc6)CC[C@]45O)[C@@]3(C)CC2)[C@H](O)[C@H](O)[C@H]1O [BNC4, proscillaridin, reference compound]	inhibition of hypoxia-mediated HIF-1α induction; also recorded: almost complete inhibition	no effect	reduce VEGF secretion	can inhibit the stress response	87	−2.69	243.9	–	–	–	–	–	–	–	–	–	–	–	–	–	IC50 (tumor cell lines; range over cell lines of Table 2): 0.418 µM; sensitivity of cell lines expressing very low levels of α-chain (tumor cell lines; SNB75 and RPMI-8226 compared with A549 or PC-3, MTS assay): very resistant; IC50 (MCF-7; MCF7, MCF-7, Breast (ER+), read-out: Anti-Proliferative activity IC50): 0.0084 µM; IC50 (LnCaP; LnCaP, Prostate): 0.0167 µM; IC50 (PC3; PC-3, PC3, Prostate, read-out: Anti-Proliferative activity IC50): 0.0041 µM; IC50 (MES-SA; Uterine): 0.0087 µM; IC50 (MES-SA-DX5; MES-SA-DX5, Uterine, read-out: Anti-Proliferative activity IC50): 0.0116 µM; IC50 (HCT116; HCT-116, HCT116, Colon, read-out: Anti-Proliferative activity IC50): 0.0081 µM; IC50 (A549; A549, NSCL, read-out: Anti-Proliferative activity IC50): 0.0035 µM; IC50 (Caki-1 (CAKI); CAKI-1, CAKI, Renal, read-out: Anti-Proliferative activity IC50): 0.0075 µM; IC50 (IGR-OV1; IGROV-1, IGR-OV1, Ovarian, read-out: Anti-Proliferative activity IC50): 0.0123 µM; IC50 (RPMI-8226; RPMI-8226, Myeloma, read-out: Anti-Proliferative activity IC50): 0.0182 µM; IC50 (CCRF-CEM; Leukemia): 0.0063 µM; IC50 (SNB-75; SNB-75, CNS, read-out: Anti-Proliferative activity IC50): 0.0168 µM; IC50 (SNB-78; SNB-78, CNS, read-out: Anti-Proliferative activity IC50): 0.0101 µM; IC50 (C33A; C33A, Cervical): 0.0136 µM
C[C@]12CC/C(=N\OCCN3CCCCC3)C=C1CC[C@@H]1[C@@H]2CC[C@]2(C)[C@@H](c3ccc(=O)oc3)CC[C@]12O [BP228]	inhibition of hypoxia-mediated HIF-1α induction; also recorded: almost complete inhibition	no effect	Attenuate Hypoxia Induced VEGF Secretion	can inhibit the stress response	79	4.88	327.0	0.64	0.0198	0.0392	0.0062	0.0114	0.0158	0.0064	0.0073	0.013	0.0319	0.0255	0.007	0.0192	IC50 (SNB-78; [10]): 0.0159 µM; IC50 (C33A): 0.0072 µM; % TGI (d24) (Panc-1 tumors; 10 mg/ml): 66%; % Wt Change (d24) (Panc-1 tumors; 10 mg/ml): 1.97%; Av. Tumor Weight (Panc-1 tumors; 10 mg/ml): 488.0 mg
C[C@@H]1O[C@@H](O[C@@H]2C=C3CC[C@@H]4[C@H](CC[C@]5(C)[C@@H](c6ccc(=O)oc6)CC[C@]45O)[C@@]3(C)CC2)[C@H](O)[C@H](O)[C@H]1N [BP244]	inhibition of hypoxia-mediated HIF-1α induction; also recorded: almost complete inhibition	no effect	reduce VEGF secretion	can inhibit the stress response	102	5.26	44.2	0.005 to 0.014	0.0082	0.0138	0.0057	0.008	0.0135	0.0051	0.0048	0.008	0.0121	0.0107	0.0047	0.0129	IC50 (SNB-78; [10]): 0.0077 µM; IC50 (C33A): 0.0051 µM; % TGI (d24) (Panc-1 tumors; 5 mg/ml): 71%; % Wt Change (d24) (Panc-1 tumors; 5 mg/ml): −4.63%; Av. Tumor Weight (Panc-1 tumors; 5 mg/ml): 524.4 mg; % TGI (d24) (Panc-1 tumors; 10 mg/ml): 98%; % Wt Change (d24) (Panc-1 tumors; 10 mg/ml): 0.93%; Av. Tumor Weight (Panc-1 tumors; 10 mg/ml): 107.3 mg
